Measured values as given in patent US20240425501A1, “NOVEL BICYCLIC HETEROARYL DERIVATIVES AS SOS1:KRAS PROTEINPROTEIN INTERACTION INHIBITORS” (SATYARX PHARMA INNOVATIONS PVT LTD, priority 2021, published 2024).

biological target: T1, hSOS1 enzyme / KRAS (G12C), GST-Tag, GDP-bound protein (Homo sapiens, UniProt Q07889); assay: SOS1-mediated KRAS guanine nucleotide exchange (GEF) assay, HTRF ("On Assay"); format: biochemical; conditions: 1 μM compound
T1 sequence (Q07889 564-1049 limits assumed): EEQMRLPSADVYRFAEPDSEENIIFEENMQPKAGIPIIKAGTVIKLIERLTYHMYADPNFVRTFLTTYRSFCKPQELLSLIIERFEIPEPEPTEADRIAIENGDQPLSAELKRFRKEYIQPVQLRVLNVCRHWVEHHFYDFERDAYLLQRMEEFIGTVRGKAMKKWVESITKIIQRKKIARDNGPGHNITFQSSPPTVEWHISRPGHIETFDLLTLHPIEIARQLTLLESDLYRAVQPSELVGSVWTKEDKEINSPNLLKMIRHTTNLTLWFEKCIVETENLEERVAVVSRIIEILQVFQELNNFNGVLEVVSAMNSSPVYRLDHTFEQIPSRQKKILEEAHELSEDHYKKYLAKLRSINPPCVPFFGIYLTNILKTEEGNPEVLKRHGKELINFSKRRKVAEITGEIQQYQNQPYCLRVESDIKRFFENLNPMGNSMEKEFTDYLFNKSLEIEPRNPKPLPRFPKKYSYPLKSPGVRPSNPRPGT
Experimental: Biochemical Assay: Measurement of SOS1-Mediated KRAS Guanine Nucleotide Exchange (GEF) Assay
This assay quantifies the HTRF-based SOS1 mediated guanine nucleotide exchange assay detecting GTP binding to KRAS (G12C), GST-Tag, GDP-bound protein. This is also referred as “On Assay”.The assay buffer composition is as follows: 10 mM HEPES pH-7, 150 mM NaCl, 5 mM MgCl2, 1 mM DTT, 0.05% BSA, 0.0025% IGEPAL CA-630 and MilliQ water. 0.5 μl of compounds diluted in assay buffer were dispensed into the respective wells of 384 black well test plate. 4.75 μl of KRAS working solution containing 100 nM KRAS (G12C), GST-Tag, GDP-bound protein GDP-loaded (Reaction biology) and 2 nM Anti GST-Tb cryptate (FRET donor, Cisbio) was added in assay buffer. The components were incubated for 10 min at 25° C.
4.75 μl of hSOS1 working solution containing 20 nM hSOS1 enzyme and 200 nM EDA-GTP-DY-647P (FRET acceptor, synthesized by Jena Bioscience (Germany), supplied as a 1 mM solution) was further added in assay buffer. 4.75 μl of inhibitor control having only 200 nM EDA-GTP-DY-647P1 component without hSOS1 working solution was added in the negative control well. The plate was short spun for few seconds and incubated for 10 min. HTRF was measured using Perkin Elmer-Nivo 5F multimode plate reader.
HTRF settings: EXCITATION FILTER—320/75 nm, EMISSION FILTER (1) —615/8 nm, EMISSION FILTER (2)—665/8 nm

| Compound | inhibition at 1 µM [%] |
| --- | --- |
| CCN1CCN(c2cnc3nc(Cl)nc(N[C@H](C)c4cc(N)cc(C(F)(F)F)c4)c3c2)CC1 [Example 80, (R)—N-(1-(3-amino-5-(trifluoromethyl)phenyl)ethyl)-2-chloro-6-(4-ethylpiperazin-1-yl)pyrido[2,3-d]pyrimidin-4-amine] | ≥ 50 |
| C[C@@H](Nc1nc(Cl)nc2cnc(N3CCC(F)CC3)cc12)c1cc(N)cc(C(F)(F)F)c1 [Example 22, (R)—N-(1-(3-amino-5-(trifluoromethyl)phenyl)ethyl)-2-chloro-6-(4-fluoropiperidin-1-yl)pyrido[3,4-d]pyrimidin-4-amine] | ≥ 50 |
| CCN1CCN(c2cnc3nc(OC)nc(N[C@H](C)c4cc(N)cc(C(F)(F)F)c4)c3c2)CC1 [Example 81, (R)—N-(1-(3-amino-5-(trifluoromethyl)phenyl)ethyl)-6-(4-ethylpiperazin-1-yl)-2-methoxypyrido[2,3-d]pyrimidin-4-amine] | ≥ 50 |
| C[C@@H](Nc1nc(N2CCC2)nc2cnc(N3CCN(C4CCC4)CC3)cc12)c1cc(N)cc(C(F)(F)F)c1 [Example 52, (R)—N-(1-(3-amino-5-(trifluoromethyl)phenyl)ethyl)-2-(azetidin-1-yl)-6-(4-cyclobutylpiperazin-1-yl)pyrido[3,4-d]pyrimidin-4-amine] | ≥ 50 |
| CCC(=O)Nc1nc(N[C@H](C)c2cc(N)cc(C(F)(F)F)c2)c2cc(N3CCCC3)ncc2n1 [Example 75, (R)—N-(4-((1-(3-amino-5-(trifluoromethyl)phenyl)ethyl)amino)-6-(pyrrolidin-1-yl)pyrido[3,4-d]pyrimidin-2-yl)propionamide] | < 50 |
| C[C@@H](Nc1nc(N2CCC2)nc2cnc(N3CCC(F)CC3)cc12)c1cc(N)cc(C(F)(F)F)c1 [Example 44, (R)—N-(1-(3-amino-5-(trifluoromethyl)phenyl)ethyl)-2-(azetidin-1-yl)-6-(4-fluoropiperidin-1-yl)pyrido[3,4-d]pyrimidin-4-amine] | ≥ 50 |
| C[C@@H](Nc1nc(N(C)C)nc2cnc(C3CCOCC3)cc12)c1cc(N)cc(C(F)(F)F)c1 [Example 65, (R)—N4-(1-(3-amino-5-(trifluoromethyl)phenyl)ethyl)-N2,N2-dimethyl-6-(tetrahydro-2H-pyran-4-yl)pyrido[3,4-d]pyrimidine-2,4-diamine] | ≥ 50 |
| CNCCNc1nc(N[C@H](C)c2cc(N)cc(C(F)(F)F)c2)c2cc(N3CCCC3)ncc2n1 [Example 39, (R)—N4-(1-(3-amino-5-(trifluoromethyl)phenyl)ethyl)-N2-(2-(methylamino)ethyl)-6-(pyrrolidin-1-yl)pyrido[3,4-d]pyrimidine-2,4-diamine] | ≥ 50 |
| COCCN(C)c1nc(N[C@H](C)c2cc(N)cc(C(F)(F)F)c2)c2cc(N3CCCC3)ncc2n1 [Example 15, (R)—N4-(1-(3-amino-5-(trifluoromethyl)phenyl)ethyl)-N2-(2-methoxyethyl)-N2-methyl-6-(pyrrolidin-1-yl)pyrido[3,4-d]pyrimidine-2,4-diamine] | ≥ 50 |
| CCN1CCN(c2cc3c(N[C@H](C)c4cc(N)cc(C(F)(F)F)c4)nc(Cl)nc3cc2C)CC1 [Example 71, (R)—N-(1-(3-amino-5-(trifluoromethyl)phenyl)ethyl)-2-chloro-6-(4-ethylpiperazin-1-yl)-7-methylquinazolin-4-amine] | ≥ 50 |
| C[C@@H](Nc1nc(Cl)nc2cnc(N3CCCC3)cc12)c1cc(N)cc(C(F)(F)F)c1 [Example 1, (R)—N-(1-(3-amino-5-(trifluoromethyl)phenyl)ethyl)-2-chloro-6-(pyrrolidin-1-yl)pyrido[3,4-d]pyrimidin-4-amine] | ≥ 50 |
| CC(C)N1CCN(c2cc3c(N[C@H](C)c4cc(N)cc(C(F)(F)F)c4)nc(Cl)nc3cn2)CC1 [Example 25, (R)—N-(1-(3-amino-5-(trifluoromethyl)phenyl)ethyl)-2-chloro-6-(4-isopropylpiperazin-1-yl)pyrido[3,4-d]pyrimidin-4-amine] | ≥ 50 |
| CNc1nc(N[C@H](C)c2cc(N)cc(C(F)(F)F)c2)c2cc(N3CCOCC3)ccc2n1 [Example 74, (R)—N4-(1-(3-amino-5-(trifluoromethyl)phenyl)ethyl)-N2-methyl-6-morpholinoquinazoline-2,4-diamine] | ≥ 50 |
| CNCCC(=O)Nc1nc(N[C@H](C)c2cc(N)cc(C(F)(F)F)c2)c2cc(N3CCOCC3)ncc2n1 [Example 79, (R)—N-(4-((1-(3-amino-5-(trifluoromethyl)phenyl)ethyl)amino)-6-morpholinopyrido[3,4-d]pyrimidin-2-yl)-3-(methylamino)propanamide] | ≥ 50 |
| C[C@@H](Nc1nc(OCCO)nc2cnc(N3CCCC3)cc12)c1cc(N)cc(C(F)(F)F)c1 [Example 11, (R)-2-((4-((1-(3-amino-5-(trifluoromethyl)phenyl)ethyl)amino)-6-(pyrrolidin-1-yl)pyrido[3,4-d]pyrimidin-2-yl)oxy)ethan-1-ol] | ≥ 50 |
| C[C@@H](Nc1nc(Cl)nc2cnc(N3CCOCC3)cc12)c1cccc(C(F)F)c1F [Example 59, (R)-2-chloro-N-(1-(3-(difluoromethyl)-2-fluorophenyl)ethyl)-6-morpholinopyrido[3,4-d]pyrimidin-4-amine] | ≥ 50 |
| C[C@@H](Nc1nc(Cl)nc2cnc(C3CCOCC3)cc12)c1cc(N)cc(C(F)(F)F)c1 [Example 63, (R)—N-(1-(3-amino-5-(trifluoromethyl)phenyl)ethyl)-2-chloro-6-(tetrahydro-2H-pyran-4-yl)pyrido[3,4-d]pyrimidin-4-amine] | ≥ 50 |
| CCN1CCN(c2cc3c(N[C@H](C)c4cc(N)cc(C(F)(F)F)c4)nc(Cl)nc3cc2F)CC1 [Example 70, (R)—N-(1-(3-amino-5-(trifluoromethyl)phenyl)ethyl)-2-chloro-6-(4-ethylpiperazin-1-yl)-7-fluoroquinazolin-4-amine] | ≥ 50 |
| CCN1CCN(c2ccc3nc(Cl)nc(N[C@H](C)c4cc(N)cc(C(F)(F)F)c4)c3c2)CC1 [Example 73, (R)—N-(1-(3-amino-5-(trifluoromethyl)phenyl)ethyl)-2-chloro-6-(4-ethylpiperazin-1-yl)quinazolin-4-amine] | ≥ 50 |
| C[C@@H](Nc1nc(Cl)nc2cnc(N3CCC(F)(F)CC3)cc12)c1cc(N)cc(C(F)(F)F)c1 [Example 21, (R)—N-(1-(3-amino-5-(trifluoromethyl)phenyl)ethyl)-2-chloro-6-(4,4-difluoropiperidin-1-yl)pyrido[3,4-d]pyrimidin-4-amine] | ≥ 50 |
| C[C@@H](Nc1nc(Cl)nc2cnc(N3CCN(C4CC4)CC3)cc12)c1cc(N)cc(C(F)(F)F)c1 [Example 26, (R)—N-(1-(3-amino-5-(trifluoromethyl)phenyl)ethyl)-2-chloro-6-(4-cyclopropylpiperazin-1-yl)pyrido[3,4-d]pyrimidin-4-amine] | ≥ 50 |
| COC1CCN(c2cc3c(N[C@H](C)c4cccc(C(F)F)c4F)nc(Cl)nc3cn2)CC1 [Example 60, (R)-2-chloro-N-(1-(3-(difluoromethyl)-2-fluorophenyl)ethyl)-6-(4-methoxypiperidin-1-yl)pyrido[3,4-d]pyrimidin-4-amine] | ≥ 50 |
| C[C@@H](Nc1nc(NCCN(C)C)nc2cnc(N3CCCC3)cc12)c1cc(N)cc(C(F)(F)F)c1 [Example 9, (R)—N4-(1-(3-amino-5-(trifluoromethyl)phenyl)ethyl)-N2-(2-(dimethylamino)ethyl)-6-(pyrrolidin-1-yl)pyrido[3,4-d]pyrimidine-2,4-diamine] | ≥ 50 |
| C[C@@H](Nc1nc(N(C)CCO)nc2cnc(N3CCCC3)cc12)c1cc(N)cc(C(F)(F)F)c1 [Example 13, (R)-2-((4-((1-(3-amino-5-(trifluoromethyl)phenyl)ethyl)amino)-6-(pyrrolidin-1-yl)pyrido[3,4-d]pyrimidin-2-yl)(methyl)amino)ethan-1-ol] | ≥ 50 |
| C[C@@H](Nc1nc(NC(=O)CN)nc2cnc(N3CCCC3)cc12)c1cc(N)cc(C(F)(F)F)c1 [Example 77, (R)-2-amino-N-(4-((1-(3-amino-5-(trifluoromethyl)phenyl)ethyl)amino)-6-(pyrrolidin-1-yl)pyrido[3,4-d]pyrimidin-2-yl)acetamide hydro chloride] | ≥ 50 |
